Measurements taken from publication PMC10454678, “Synthesis of hydroxy benzoin/benzil analogs and investigation of their antioxidant, antimicrobial, enzyme inhibition, and cytotoxic activities” (Turkish Journal of Chemistry, 2021).

Key:
[1] = tested on: Candida albicans ATCC60193; experiment: MIC, microdilution, C. albicans; assay type: cell-based; settings: fungus; YEPD broth, 48 h, 36 °C
[2] = molecular target: tyrosinase (Agaricus bisporus, UniProt C7FF04); experiment: Tyrosinase inhibition (dopachrome method); assay type: biochemical; settings: L-DOPA substrate, pH 6.8, 25 °C, 492 nm
[3] = molecular target: α-glucosidase; experiment: α-Glucosidase inhibition; assay type: biochemical; settings: PNPG, pH 6.8, 37 °C, 400 nm
Description: It was incubated at 37 °C for 15 min. Similarly, an enzyme-free blank was prepared. The reaction was stopped when sodium carbonate (50 μL, 0.2 M) was added.

[4] = tested on: Staphylococcus aureus ATCC25923; experiment: MIC, microdilution, S. aureus; assay type: cell-based; settings: Gram (+); Mueller-Hinton broth, 18-24 h, 36 °C
[5] = molecular target: α-amylase (Sus scrofa, UniProt P00690); experiment: α-Amylase inhibition (Caraway-Somogyi I2/KI method); assay type: biochemical; settings: starch, pH 6.9, 37 °C, 630 nm
[6] = tested on: Pseudomonas aeruginosa ATCC27853; experiment: MIC, microdilution, P. aeruginosa; assay type: cell-based; settings: Gram (-); Mueller-Hinton broth, 18-24 h, 36 °C
[7] = tested on: Enterococcus faecalis ATCC29212; experiment: MIC, microdilution, E. faecalis; assay type: cell-based; settings: Gram (+); Mueller-Hinton broth, 18-24 h, 36 °C
[8] = tested on: Bacillus cereus Roma709; experiment: MIC, microdilution, B. cereus; assay type: cell-based; settings: Gram (+); Mueller-Hinton broth, 18-24 h, 36 °C
[9] = DPPH radical scavenging activity; settings: 0.1 mM DPPH, 50 min dark, 517 nm
[10] = tested on: Mycobacterium smegmatis ATCC607; experiment: MIC, microdilution, M. smegmatis; assay type: cell-based; settings: Tub.; BHI broth, 72 h, 36 °C
[11] = Copper ions reducing activity (CUPRAC); settings: Trolox equivalents; 30 min dark, room temperature, 450 nm
[12] = Ferric reducing antioxidant power (FRAP) assay; settings: Trolox equivalents, compounds 2 mg/mL, 30 °C 30 min, 595 nm
[13] = tested on: Streptococcus mutans RSKK07038; experiment: MIC, microdilution, S. mutans; assay type: cell-based; settings: Gram (+); BHI broth, 72 h, 36 °C
[14] = molecular target: acetylcholinesterase (Homo sapiens, UniProt P22303); experiment: biochemical; settings: Tris-HCl pH 8.0, 25 °C, 405 nm
[15] = molecular target: butyrylcholinesterase (Homo sapiens, UniProt P06276); experiment: biochemical; settings: Tris-HCl pH 8.0, 25 °C, 405 nm
[16] = tested on: Yersinia pseudotuberculosis ATCC911; experiment: microbe, parasite or virus in culture; assay type: cell-based; settings: Gram (-); Mueller-Hinton broth, 18-24 h, 36 °C
[17] = tested on: Escherichia coli ATCC 25922; experiment: MIC, microdilution, E. coli; assay type: cell-based; settings: Gram (-); Mueller-Hinton broth, 18-24 h, 36 °C
[18] = tested on: human retinal normal cell line (RPE); experiment: MTT cell proliferation, RPE; settings: MTT, 24 h incubation
[19] = tested on: human cervical cancer cell line (HeLa); experiment: MTT cell proliferation, HeLa; settings: MTT, 24 h incubation

tyrosinase, sequence (C7FF04 1-392): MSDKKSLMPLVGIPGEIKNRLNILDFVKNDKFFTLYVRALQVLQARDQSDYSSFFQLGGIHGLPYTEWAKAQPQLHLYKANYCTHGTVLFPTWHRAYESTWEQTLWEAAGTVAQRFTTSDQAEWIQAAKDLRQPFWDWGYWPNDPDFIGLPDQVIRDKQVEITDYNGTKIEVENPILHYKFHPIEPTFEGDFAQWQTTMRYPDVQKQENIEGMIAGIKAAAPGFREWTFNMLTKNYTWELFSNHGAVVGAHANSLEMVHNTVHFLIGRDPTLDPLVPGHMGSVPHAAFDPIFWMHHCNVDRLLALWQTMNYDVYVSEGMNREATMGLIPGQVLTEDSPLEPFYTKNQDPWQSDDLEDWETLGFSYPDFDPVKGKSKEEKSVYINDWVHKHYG
α-amylase, sequence (P00690 16-511): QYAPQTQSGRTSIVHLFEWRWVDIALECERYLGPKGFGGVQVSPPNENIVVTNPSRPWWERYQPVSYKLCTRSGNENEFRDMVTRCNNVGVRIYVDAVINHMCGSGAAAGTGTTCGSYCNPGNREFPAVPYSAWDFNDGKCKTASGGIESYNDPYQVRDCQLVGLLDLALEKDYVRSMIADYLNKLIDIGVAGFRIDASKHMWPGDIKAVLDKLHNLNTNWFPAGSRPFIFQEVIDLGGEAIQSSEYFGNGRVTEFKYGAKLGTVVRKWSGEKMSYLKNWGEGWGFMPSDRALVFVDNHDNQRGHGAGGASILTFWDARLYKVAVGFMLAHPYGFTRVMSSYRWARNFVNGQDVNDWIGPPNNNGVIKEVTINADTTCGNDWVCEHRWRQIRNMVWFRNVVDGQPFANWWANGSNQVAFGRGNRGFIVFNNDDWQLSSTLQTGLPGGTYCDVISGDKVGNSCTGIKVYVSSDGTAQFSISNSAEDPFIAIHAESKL
acetylcholinesterase, sequence (P22303 32-614, species assumed): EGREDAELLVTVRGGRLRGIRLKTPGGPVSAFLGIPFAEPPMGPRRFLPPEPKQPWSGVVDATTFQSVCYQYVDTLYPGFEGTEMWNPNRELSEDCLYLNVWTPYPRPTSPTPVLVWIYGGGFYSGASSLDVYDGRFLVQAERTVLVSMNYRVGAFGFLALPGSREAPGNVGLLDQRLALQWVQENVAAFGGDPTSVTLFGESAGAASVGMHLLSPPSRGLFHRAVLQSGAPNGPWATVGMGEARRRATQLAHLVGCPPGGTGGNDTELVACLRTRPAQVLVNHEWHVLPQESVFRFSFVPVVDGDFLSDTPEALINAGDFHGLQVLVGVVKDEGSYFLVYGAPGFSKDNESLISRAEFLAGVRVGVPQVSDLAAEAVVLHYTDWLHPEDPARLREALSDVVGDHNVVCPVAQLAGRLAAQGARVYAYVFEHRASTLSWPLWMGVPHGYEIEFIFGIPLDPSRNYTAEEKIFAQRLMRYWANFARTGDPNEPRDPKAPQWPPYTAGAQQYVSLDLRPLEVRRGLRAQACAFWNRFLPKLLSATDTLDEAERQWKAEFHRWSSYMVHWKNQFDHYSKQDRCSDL
butyrylcholinesterase, sequence (P06276 29-602): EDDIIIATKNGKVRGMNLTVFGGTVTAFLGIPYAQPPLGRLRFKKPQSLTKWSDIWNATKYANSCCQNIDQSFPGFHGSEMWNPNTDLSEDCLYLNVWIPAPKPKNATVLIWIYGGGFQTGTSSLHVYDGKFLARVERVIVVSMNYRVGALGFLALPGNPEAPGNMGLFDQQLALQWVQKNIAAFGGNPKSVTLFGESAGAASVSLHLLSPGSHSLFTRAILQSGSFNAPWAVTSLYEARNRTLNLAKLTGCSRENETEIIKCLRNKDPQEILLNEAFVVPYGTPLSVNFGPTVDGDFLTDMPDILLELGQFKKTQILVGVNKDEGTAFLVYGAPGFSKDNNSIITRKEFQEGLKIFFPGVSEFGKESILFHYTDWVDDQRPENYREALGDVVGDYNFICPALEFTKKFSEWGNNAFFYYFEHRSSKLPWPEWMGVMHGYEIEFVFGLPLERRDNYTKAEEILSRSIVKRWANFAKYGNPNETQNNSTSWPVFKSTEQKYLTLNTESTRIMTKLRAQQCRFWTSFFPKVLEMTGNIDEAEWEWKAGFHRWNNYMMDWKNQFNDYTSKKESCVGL

2-Hydroxy-1-(3,5-dihydroxyphenyl)-2-(3-hydroxyphenyl)ethanone and 2-Hydroxy-1-(3-hydroxyphenyl)-2-(3,5-dihydroxyphenyl)ethanone [6a+b]
MIC Ca [1]: 103 µg/mL | Tyrosinase IC50 [2]: 25.45 µg/mL | α-Glucosidase IC50 [3]: 76.53 µg/mL | MIC Sa [4]: 12 µg/mL | α-Amylase IC50 [5]: 230.76 µg/mL | MIC Pa [6]: 52 µg/mL | MIC Ef [7]: 24 µg/mL | MIC Bc [8]: 24 µg/mL | DPPH radical scavenging capacity (SC50) [9]: 9.48 ± 0.3 mg/mL | MIC Ms [10]: 12 µg/mL | CUPRAC, copper reducing antioxidant power [11]: 506.67 ± 17.3 μg/mL trolox/gram DW | FRAP, the iron reducing antioxidant power [12]: 2237 ± 58.3 μg/mL trolox/gram DW | FRAP, the iron reducing antioxidant power ([12]; listed as 6): 2237±58.3 μg/mL trolox/gram DW | MIC Sm [13]: 12 µg/mL | AChE IC50 [14]: >1000 µg/mL | BChE IC50 [15]: 592.92 µg/mL | MIC Yp [16]: 103 µg/mL | MIC Ec [17]: 103 µg/mL

2-Hydroxy-1-(3-O- β -D-glucopyranosylphenyl)-2-(3-hydroxyphenyl)-ethanone; 2-Hydroxy-1-(3-hydroxyphenyl)-2-(3-O- β -D-glucopyranosylphenyl)ethanone [18a+b]
Tyrosinase IC50 [2]: >1000 µg/mL | α-Glucosidase IC50 [3]: >1000 µg/mL | α-Amylase IC50 [5]: >1000 µg/mL | DPPH radical scavenging capacity (SC50) [9]: 12.11 ± 0.43 mg/mL | CUPRAC, copper reducing antioxidant power [11]: 385.80 ± 37.12 μg/mL trolox/gram DW | FRAP, the iron reducing antioxidant power [12]: 2743.75 ± 25.20 μg/mL trolox/gram DW | GI50 RPE normal cell line [18]: 1.90 µg/mL | IC50 RPE normal cell line [18]: 83.81 µg/mL | GI50 HeLa cell line [19]: 2.23 µg/mL | IC50 HeLa cell line [19]: 104.49 µg/mL
